Among the data in US20230203098A1, “HUMAN TRANSFERRIN RECEPTOR BINDING PEPTIDE” (priority 2020, published 2023) are Kd values, retold here.

Where a SMILES comes first, the peptide text is derived from it. Bridges are numbered along the chain shown (N, C = ends). [ ]: non-standard residue; d: D form. Trp(1-CH2COOH) = N[C@@H](Cc1cn(CC(=O)O)c2ccccc12)C(=O)O; NMePhe(3-Cl) = CN[C@@H](Cc1cccc(Cl)c1)C(=O)O; NMeW = CN[C@@H](Cc1c[nH]c2ccccc12)C(=O)O; NMeY = CN[C@@H](Cc1ccc(O)cc1)C(=O)O; Aad = N[C@@H](CCCC(=O)O)C(=O)O; hLys = NCCCCC[C@H](N)C(=O)O; Orn = NCCC[C@H](N)C(=O)O

transferrin receptor (hTfR), sequence (P02786 whole entry): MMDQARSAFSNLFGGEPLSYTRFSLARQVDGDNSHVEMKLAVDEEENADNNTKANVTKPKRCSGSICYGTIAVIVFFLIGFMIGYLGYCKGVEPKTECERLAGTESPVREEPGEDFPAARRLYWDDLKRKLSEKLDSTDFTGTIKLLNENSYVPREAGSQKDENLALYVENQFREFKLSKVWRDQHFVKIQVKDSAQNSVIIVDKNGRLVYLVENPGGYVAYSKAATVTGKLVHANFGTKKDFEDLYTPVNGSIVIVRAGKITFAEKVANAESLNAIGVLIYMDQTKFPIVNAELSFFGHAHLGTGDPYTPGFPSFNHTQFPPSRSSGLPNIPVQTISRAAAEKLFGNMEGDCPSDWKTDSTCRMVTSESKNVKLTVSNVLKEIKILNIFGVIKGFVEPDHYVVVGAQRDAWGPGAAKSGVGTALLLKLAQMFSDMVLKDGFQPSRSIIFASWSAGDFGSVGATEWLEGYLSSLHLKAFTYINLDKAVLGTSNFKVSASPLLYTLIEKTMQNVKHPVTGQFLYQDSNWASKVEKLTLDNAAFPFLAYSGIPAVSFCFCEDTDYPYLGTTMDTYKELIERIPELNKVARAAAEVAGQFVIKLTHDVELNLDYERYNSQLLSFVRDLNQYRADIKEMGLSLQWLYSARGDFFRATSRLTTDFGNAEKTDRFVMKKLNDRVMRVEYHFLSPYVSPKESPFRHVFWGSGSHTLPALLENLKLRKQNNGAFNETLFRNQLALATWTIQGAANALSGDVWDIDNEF

The target in one assay is transferrin receptor (hTfR) (Homo sapiens, UniProt P02786). Description: Intermolecular interaction evaluation test between transferrin receptor (hTfR) and peptide by surface plasmon resonance (SPR). The class given is binding. The following applies: surface plasmon resonance, hTfR; read-out: KD value for hTfR by SPR (class symbol). Put shortly:
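hTfR captured on Ni-NTA chip then amine-coupled; peptides run single-cycle kinetics at 5–100 nM in 10 mM HEPES pH 8.0, 150 mM NaCl, 0.05% Tween 20, 0.1% BSA, 1.0% DMSO. KD from least-squares curve fitting of sensorgrams.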
As for `CC[C@H](C)[C@@H]1NC(=O)[C@H](Cc2ccc(OC)cc2)NC(=O)[C@H](Cc2ccc(O)cc2)NC(=O)[C@H](CC(N)=O)NC(=O)[C@H](Cc2c[nH]c3ccccc23)N(C)C(=O)[C@H](C(C)C)NC(=O)[C@H](Cc2cccc(Cl)c2)N(C)C(=O)[C@H](C(C)C)NC(=O)[C@H](C)NC(=O)CSC[C@@H](C(=O)NCC(=O)NCC(=O)NCC(=O)NCC(=O)N[C@@H](CO)C(=O)N[C@@H](CO)C(=O)N[C@@H](CS)C(N)=O)NC(=O)[C@H](Cc2ccc(O)cc2)N(C)C(=O)[C@H](Cc2ccccc2)NC(=O)[C@@H](CCCCN)NC(=O)[C@H](CCCNC(=N)N)NC(=O)[C@H]([C@@H](C)CC)NC1=O` [compound 407], the Kd fell in the range of 1 to 100 nM. As for `CC[C@H](C)[C@@H]1NC(=O)[C@H](Cc2ccc(O)cc2)NC(=O)[C@H](Cc2ccc(O)cc2)NC(=O)[C@H](CC(N)=O)NC(=O)[C@H](Cc2c[nH]c3ccccc23)NC(=O)[C@H](C(C)C)NC(=O)[C@H](Cc2ccccc2)NC(=O)[C@H](C(C)C)NC(=O)[C@H](C)NC(=O)CCC[C@@H](C(N)=O)NC(=O)[C@H](Cc2ccc(O)cc2)N(C)C(=O)[C@H](Cc2ccc(O)cc2)NC(=O)[C@H](CCCNC(=N)N)NC(=O)[C@H](CCCNC(=N)N)NC(=O)[C@H]([C@@H](C)CC)NC1=O` [compound 408], the Kd lay in the range of 1 to 100 nM. Consider `CC[C@H](C)[C@@H]1NC(=O)[C@H](Cc2ccc(O)cc2)NC(=O)[C@H](Cc2ccc(O)cc2)NC(=O)[C@H](CC(N)=O)NC(=O)[C@H](Cc2c[nH]c3ccccc23)N(C)C(=O)[C@H](C(C)C)NC(=O)[C@H](Cc2cccc(Cl)c2)N(C)C(=O)[C@@H]2CCCC(=O)NCCCC[C@H](NC(=O)[C@H]([C@@H](C)CC)NC1=O)C(=O)N[C@@H](CCCNC(=N)N)C(=O)N[C@@H](Cc1ccc(O)cc1)C(=O)N(C)[C@@H](Cc1ccc(O)cc1)C(=O)N[C@H](C(N)=O)CSCC(=O)N[C@@H](C)C(=O)N2` [compound 409], for which the Kd is 1 to 100 nM. In the case of `CC[C@H](C)[C@@H]1NC(=O)[C@H](Cc2ccc(O)cc2)NC(=O)[C@H](Cc2ccc(O)cc2)NC(=O)[C@H](CC(N)=O)NC(=O)[C@H](Cc2c[nH]c3ccccc23)N(C)C(=O)[C@H](C(C)C)NC(=O)[C@H](Cc2cccc(Cl)c2)N(C)C(=O)[C@@H]2CCCC(=O)NCCCCC[C@H](NC(=O)[C@H]([C@@H](C)CC)NC1=O)C(=O)N[C@@H](CCCNC(=N)N)C(=O)N[C@@H](Cc1ccc(O)cc1)C(=O)N(C)[C@@H](Cc1ccc(O)cc1)C(=O)N[C@H](C(N)=O)CSCC(=O)N[C@@H](C)C(=O)N2` [compound 410], the Kd is 1 to 100 nM.

The assay is the same for the next values; noted with them: surface plasmon resonance, peptide vs hTfR; read-out: KD value for hTfR by SPR (class symbol).
As for `CC[C@H](C)[C@@H]1NC(=O)[C@H](Cc2ccc(O)cc2)NC(=O)[C@H](Cc2ccc(O)cc2)NC(=O)[C@H](CC(N)=O)NC(=O)[C@H](Cc2c[nH]c3ccccc23)N(C)C(=O)[C@H](C(C)C)NC(=O)[C@H](Cc2cccc(Cl)c2)N(C)C(=O)[C@@H]2CCC(=O)NCCCCC[C@H](NC(=O)[C@H]([C@@H](C)CC)NC1=O)C(=O)N[C@@H](CCCNC(=N)N)C(=O)N[C@@H](Cc1ccc(O)cc1)C(=O)N(C)[C@@H](Cc1ccc(O)cc1)C(=O)N[C@H](C(N)=O)CSCC(=O)N[C@@H](C)C(=O)N2` [compound 411], the Kd was in the range of 1 to 100 nM.

For the molecule `CC[C@H](C)[C@@H]1NC(=O)[C@H](Cc2ccc(O)cc2)NC(=O)[C@H](Cc2ccc(O)cc2)NC(=O)[C@H](CC(N)=O)NC(=O)[C@H](Cc2c[nH]c3ccccc23)N(C)C(=O)[C@H](C(C)C)NC(=O)[C@H](Cc2cccc(Cl)c2)N(C)C(=O)[C@@H]2CCC(=O)NCCCC[C@H](NC(=O)[C@H]([C@@H](C)CC)NC1=O)C(=O)N[C@@H](CCCNC(=N)N)C(=O)N[C@@H](Cc1ccc(O)cc1)C(=O)N(C)[C@@H](Cc1ccc(O)cc1)C(=O)N[C@H](C(N)=O)CSCC(=O)N[C@@H](C)C(=O)N2` [compound 412], the Kd is 1 to 100 nM. As to `CC[C@H](C)[C@@H]1NC(=O)[C@@H]2CCCCNC(=O)[C@H]3CCCN3C(=O)CC[C@H](NC(=O)[C@H](C(C)C)NC(=O)[C@H](C)NC(=O)CSC[C@@H](C(N)=O)NC(=O)[C@H](Cc3ccc(O)cc3)N(C)C(=O)[C@H](Cc3ccc(O)cc3)NC(=O)[C@H](CCCNC(=N)N)NC(=O)[C@H](CCCNC(=N)N)NC(=O)[C@H]([C@@H](C)CC)NC1=O)C(=O)N[C@@H](C(C)C)C(=O)N(C)[C@@H](Cc1c[nH]c3ccccc13)C(=O)N[C@@H](CC(N)=O)C(=O)N[C@@H](Cc1ccc(O)cc1)C(=O)N2` [compound 413] ({CH2CO}-AVEV[NMeW]NYKIIRRY[NMeY]C-NH2; linker 3-8 via dP; thioether N-15), the equilibrium dissociation constant (Kd) was in the range of 100 to 1000 nM.

In the case of `CC[C@H](C)[C@@H]1NC(=O)[C@@H]2CCCCNC(=O)[C@H]3CCCN3C(=O)C[C@H](NC(=O)[C@H](C(C)C)NC(=O)[C@H](C)NC(=O)CSC[C@@H](C(N)=O)NC(=O)[C@H](Cc3ccc(O)cc3)N(C)C(=O)[C@H](Cc3ccc(O)cc3)NC(=O)[C@H](CCCNC(=N)N)NC(=O)[C@H](CCCNC(=N)N)NC(=O)[C@H]([C@@H](C)CC)NC1=O)C(=O)N[C@@H](C(C)C)C(=O)N(C)[C@@H](Cc1c[nH]c3ccccc13)C(=O)N[C@@H](CC(N)=O)C(=O)N[C@@H](Cc1ccc(O)cc1)C(=O)N2` [compound 414] ({CH2CO}-AVDV[NMeW]NYKIIRRY[NMeY]C-NH2; linker 3-8 via dP; thioether N-15), the Kd was in the range of 1 to 100 nM. Same read-out and setting: to `CC[C@H](C)[C@@H]1NC(=O)[C@@H]2CCCNC(=O)CC[C@H](NC(=O)[C@H](C(C)C)NC(=O)[C@H](C)NC(=O)CSC[C@@H](C(N)=O)NC(=O)[C@H](Cc3ccc(O)cc3)N(C)C(=O)[C@H](Cc3ccc(O)cc3)NC(=O)[C@H](CCCNC(=N)N)NC(=O)[C@H](CCCNC(=N)N)NC(=O)[C@H]([C@@H](C)CC)NC1=O)C(=O)N[C@@H](C(C)C)C(=O)N(C)[C@@H](Cc1c[nH]c3ccccc13)C(=O)N[C@@H](CC(N)=O)C(=O)N[C@@H](Cc1ccc(O)cc1)C(=O)N2` [compound 415] ({CH2CO}-AVEV[NMeW]NY[Orn]IIRRY[NMeY]C-NH2; lactam 3-8 (inferred); thioether N-15 (inferred)) belongs 100 to 1000 nM; to `CC[C@H](C)[C@@H]1NC(=O)[C@H](Cc2ccc(O)cc2)NC(=O)[C@H](Cc2ccc(O)cc2)NC(=O)[C@H](CC(N)=O)NC(=O)[C@H](Cc2c[nH]c3ccccc23)N(C)C(=O)[C@H](C(C)C)NC(=O)[C@H](Cc2cccc(Cl)c2)N(C)C(=O)[C@@H]2CCC(=O)N3CCC[C@@H]3C(=O)NCCCC[C@H](NC(=O)[C@H]([C@@H](C)CC)NC1=O)C(=O)N[C@@H](CCCNC(=N)N)C(=O)N[C@@H](Cc1ccc(O)cc1)C(=O)N(C)[C@@H](Cc1ccc(O)cc1)C(=O)N[C@H](C(N)=O)CSCC(=O)N[C@@H](C)C(=O)N2` [compound 416], 1 to 100 nM.

For the molecule `CC[C@H](C)[C@@H]1NC(=O)[C@H](Cc2ccc(O)cc2)NC(=O)[C@H](Cc2ccc(O)cc2)NC(=O)[C@H](CC(N)=O)NC(=O)[C@H](Cc2c[nH]c3ccccc23)N(C)C(=O)[C@H](C(C)C)NC(=O)[C@H](Cc2cccc(Cl)c2)N(C)C(=O)[C@@H]2CCC(=O)NCC(=O)NCCCC[C@H](NC(=O)[C@H]([C@@H](C)CC)NC1=O)C(=O)N[C@@H](CCCNC(=N)N)C(=O)N[C@@H](Cc1ccc(O)cc1)C(=O)N(C)[C@@H](Cc1ccc(O)cc1)C(=O)N[C@H](C(N)=O)CSCC(=O)N[C@@H](C)C(=O)N2` [compound 417], the Kd fell in the range of 1 to 100 nM. Still for that read-out and setting: to `CC[C@H](C)[C@@H]1NC(=O)[C@H](Cc2ccc(OC)cc2)NC(=O)[C@H](Cc2ccc(O)cc2)NC(=O)[C@H](CC(N)=O)NC(=O)[C@H](Cc2c[nH]c3ccccc23)N(C)C(=O)[C@H](C(C)C)NC(=O)[C@H](Cc2cccc(Cl)c2)N(C)C(=O)[C@@H]2CCCC(=O)NCCCCC[C@H](NC(=O)[C@H]([C@@H](C)CC)NC1=O)C(=O)N[C@H](CCCNC(=N)N)C(=O)N[C@@H](Cc1ccccc1)C(=O)N(C)[C@@H](Cc1ccc(O)cc1)C(=O)N[C@H](C(N)=O)CSCC(=O)N[C@@H](C)C(=O)N2` [compound 418] ({CH2CO}-A[Aad][NMePhe(3-Cl)]V[NMeW]NYY(Me)II[hLys][dR]F[NMeY]C-NH2; lactam 2-11 (inferred); thioether N-15 (inferred)) belongs 1 to 100 nM; to `CC[C@H](C)[C@@H]1NC(=O)[C@H](Cc2ccc(O)cc2)NC(=O)[C@H](Cc2ccc(O)cc2)NC(=O)[C@H](CC(N)=O)NC(=O)[C@H](Cc2cn(CC(=O)O)c3ccccc23)NC(=O)[C@H](C(C)C)NC(=O)[C@H](Cc2cccc(Cl)c2)N(C)C(=O)[C@@H]2CCCC(=O)NCCCCC[C@H](NC(=O)[C@H]([C@@H](C)CC)NC1=O)C(=O)N[C@H](CCCNC(=N)N)C(=O)N[C@@H](Cc1ccccc1)C(=O)N(C)[C@@H](Cc1ccc(O)cc1)C(=O)N[C@H](C(N)=O)CSCC(=O)N[C@@H](C)C(=O)N2` [compound 419] ({CH2CO}-A[Aad][NMePhe(3-Cl)]V[Trp(1-CH2COOH)]NYYII[hLys][dR]F[NMeY]C-NH2; lactam 2-11; thioether N-15), 1 to 100 nM; to `CC[C@H](C)[C@@H]1NC(=O)[C@H](Cc2ccc(O)cc2)NC(=O)[C@H](Cc2ccc(O)cc2)NC(=O)[C@H](CC(N)=O)NC(=O)[C@H](Cc2c[nH]c3ccccc23)NC(=O)[C@H](C(C)C)NC(=O)[C@H](Cc2ccccc2)N(C)C(=O)[C@H](C(C)C)NC(=O)[C@H](C)NC(=O)CSC[C@@H](C(=O)NCCOCCOCCOCCOCCOCCOCCOCCOCCOCCOCCOCCOCCC(N)=O)NC(=O)[C@H](Cc2ccc(O)cc2)N(C)C(=O)[C@H](Cc2ccc(O)cc2)NC(=O)[C@H](CCCNC(=N)N)NC(=O)[C@H](CCCNC(=N)N)NC(=O)[C@H]([C@@H](C)CC)NC1=O` [compound 420], 1 to 100 nM. Still for that read-out and setting: to `CC[C@H](C)[C@@H]1NC(=O)[C@H](Cc2ccc(O)cc2)NC(=O)[C@H](Cc2ccc(O)cc2)NC(=O)[C@H](CC(N)=O)NC(=O)[C@H](Cc2c[nH]c3ccccc23)NC(=O)[C@H](C(C)C)NC(=O)[C@H](Cc2ccccc2)N(C)C(=O)[C@H](C(C)C)NC(=O)[C@H](C)NC(=O)CSC[C@@H](C(=O)NCC(=O)O)NC(=O)[C@H](Cc2ccc(O)cc2)N(C)C(=O)[C@H](Cc2ccc(O)cc2)NC(=O)[C@H](CCCNC(=N)N)NC(=O)[C@H](CCCNC(=N)N)NC(=O)[C@H]([C@@H](C)CC)NC1=O` [compound 421] belongs 1 to 100 nM.
